# Test results from publication PMC8753592, “Long-acting capsid inhibitor protects macaques from repeat SHIV challenges” (Nature, 2021).
# Several values for one entry are separate records, joined by “and”; a condition that tells them apart may be missing. Equal entries are not always repeated.
# Assays:
# CA pentamer = conditions: ref Yant et al, Nat.Med, 2019;[4]; read-out: Binding Affinity (KD), CA pentamer; cited from earlier work
# in vitro = conditions: rhesus
# Method: After a 24-h equilibration period at 37 °C, samples were quenched with 4 volumes of 90% (vol/vol) acetonitrile and 10% (vol/vol) methanol containing internal standard. Then, they were quantified using the AB Sciex API 4000 LC–MS/MS system (GenTech Scientific) with electrospray ionization in positive mode and multiple-reaction monitoring and were analysed using Analyst 1.6.1 software. The fold change value in 100% rhesus plasma was then calculated using the plasma/CCM ratio after correcting for the sample dilution factor and the percentage of free fraction in the matrix.
# CA hexamer = conditions: ref Yant et al, Nat.Med, 2019;[4]; read-out: Binding Affinity (KD), CA hexamer; cited from earlier work
# CA monomer = conditions: ref Yant et al, Nat.Med, 2019;[4]; read-out: Binding Affinity (KD), CA monomer; cited from earlier work
# HIV-1 IIIb strain = experiment: High-density antiviral dose–response curves (Hill slope) against HIV-1 IIIb in MT-4 cells; assay type: cell-based
smiles,measurement,setting,value
CC(C)(C#Cc1ccc(-c2ccc(Cl)c3c(NS(=O)(=O)C4CC4)nn(CC(F)F)c23)c([C@H](Cc2cc(F)cc(F)c2)NC(=O)Cn2nc(C(F)F)c3c2C(F)(F)[C@@H]2C[C@H]32)n1)S(C)(=O)=O [GS-CA1],Kd,CA pentamer,0.27 nM
same,"recovery at 24 h, 2 μM",in vitro,60%
same,Kd,CA hexamer,0.38 nM
same,Kd,CA monomer,3.9 nM
same,Hill slope (n),HIV-1 IIIb strain,3.03 ± 0.69 and 3.0 ± 0.7
